The text below walks through data of PubChem BioAssay AID1645866 (Buhrlage Lab, Dana-Farber Cancer Institute and Novartis …, 2021).

Calls of active or inactive are those of the source.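 How the source made its calls: active means in confirmatory dose-response testing, peak deubiquitinase inhibition of 30% or more; inactive means the rest.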 Positions of bridges follow the written chain, without caps; N, C: chain ends. Residues, ends and D or L forms follow the SMILES beside them. ξ: configuration not given here. *: point of attachment. Pentadecanoyl(3ξ-OH,15-Gua) = N=C(N)NCCCCCCCCCCCCC(O)CC(=O)* Bounds are passed on as bounds.

The target in the assay is Ubiquitin carboxyl-terminal hydrolase 28 (Homo sapiens) (UniProt Q96RU2). The assay can be described thus: Ubiquitin-specific peptidase 28 DUB inhibitors, biochemical concentration-dependence assay, validation of primary screening hits (AID 1645866). As to conditions: purified USP28, ubiquitin-rhodamine fluorescence, 30 min.
Ubiquitin carboxyl-terminal hydrolase 28 (Homo sapiens), sequence (Q96RU2 whole entry, looked up): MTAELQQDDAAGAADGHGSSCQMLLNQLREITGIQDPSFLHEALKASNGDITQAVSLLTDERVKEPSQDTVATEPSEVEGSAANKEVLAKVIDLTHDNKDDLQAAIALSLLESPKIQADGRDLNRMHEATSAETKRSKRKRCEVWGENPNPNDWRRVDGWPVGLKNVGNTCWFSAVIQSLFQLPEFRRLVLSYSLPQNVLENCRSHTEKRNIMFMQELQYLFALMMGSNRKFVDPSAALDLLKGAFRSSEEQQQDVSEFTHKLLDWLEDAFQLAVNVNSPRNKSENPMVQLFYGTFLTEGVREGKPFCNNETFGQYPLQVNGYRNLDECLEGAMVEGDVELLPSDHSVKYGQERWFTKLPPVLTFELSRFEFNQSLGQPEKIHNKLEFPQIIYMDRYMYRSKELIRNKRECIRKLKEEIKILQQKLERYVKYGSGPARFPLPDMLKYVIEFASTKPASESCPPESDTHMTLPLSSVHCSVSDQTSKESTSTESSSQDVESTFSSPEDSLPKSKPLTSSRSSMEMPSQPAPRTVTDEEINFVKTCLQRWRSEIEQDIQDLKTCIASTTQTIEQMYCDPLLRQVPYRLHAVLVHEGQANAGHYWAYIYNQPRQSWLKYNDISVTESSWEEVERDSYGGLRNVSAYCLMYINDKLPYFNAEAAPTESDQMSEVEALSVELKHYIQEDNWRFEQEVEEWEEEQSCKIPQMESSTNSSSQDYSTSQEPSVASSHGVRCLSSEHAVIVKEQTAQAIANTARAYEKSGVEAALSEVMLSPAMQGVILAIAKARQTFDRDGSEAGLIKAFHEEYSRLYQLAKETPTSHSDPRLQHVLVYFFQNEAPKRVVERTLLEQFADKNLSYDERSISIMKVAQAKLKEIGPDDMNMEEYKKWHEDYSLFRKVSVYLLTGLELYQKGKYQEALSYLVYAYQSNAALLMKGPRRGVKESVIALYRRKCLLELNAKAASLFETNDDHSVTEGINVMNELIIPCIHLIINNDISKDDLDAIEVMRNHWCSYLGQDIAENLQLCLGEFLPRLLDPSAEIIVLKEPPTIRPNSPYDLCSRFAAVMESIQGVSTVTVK
As for `Cc1cccc(NC(=O)c2nn(C)c3ccccc3c2=O)c1`, the concentration for half-maximal inhibition (IC50) is 16.5 µM.

As to `O=C(NCc1ccc2c(c1)OCO2)c1cc(-c2cc(Cl)ccc2O)n[nH]1`, the IC50 is 12 µM. The result for `CCCCCCCc1cc(O)cc(OC(=O)c2c(CCCCCCC)cc(O)cc2O[C@H]2O[C@H](C(O)CO)[C@@H](O)[C@@H]2O)c1` (some centres undefined) reads 2.18 µM; that for `O=C(OCCCN1C(=O)c2cccc3c(N4CCCCC4)ccc(c23)C1=O)c1ccccn1`, > 50 µM (inactive); that for `CCOC(=O)c1ccc(NC(=O)c2cnc(N3CCOCC3)nc2)cc1`, > 50 µM (inactive). In the case of `O=c1c2c(ccn1Cc1cc(F)ccc1F)ccn2Cc1cccnc1` it was 7.21 µM; in that of `NS(=O)(=O)c1ccc(NC(=O)Cn2cnc3cc([N+](=O)[O-])ccc3c2=O)cc1`, 19.9 µM; in that of `CN(C)c1ccc(C2CC(c3c(O)n(C)c(=O)[nH]c3=O)=Nc3ccccc3S2)cc1` (centres undefined), 2.12 µM. In the case of `CCOC(=O)c1cc2c(ccn2C)n1CC(=O)N1CCC(C)CC1` it was > 50 µM (inactive); in that of `O=C(Nc1cccc2ccccc12)N1CCC(c2nc3c(nnn3Cc3ccc(F)cc3)c(=O)[nH]2)CC1`, 36.1 µM; in that of `COc1cc(NC(=O)c2ccc3c(c2)OCO3)ccc1-c1cc2ccccc2oc1=O`, 2.19 µM. Consider `O=c1c2cnc(N3CCOCC3)nc2ccn1CCc1ccccc1`, for which the half-maximal inhibitory concentration (IC50) was 15.2 µM. In the case of `Cc1nnc(-c2nnc(NCc3ccc(Cl)cc3)c3ccccc23)o1` it was > 50 µM (inactive); in that of `O=C1c2ccccc2NC2(C(=O)Nc3ccc(Br)cc32)N1c1ccccc1` (centres undefined), 3.31 µM. Consider `Cc1c(C(=O)Nc2ccc(-c3nnc4n3CCCCC4)cc2)oc2c1ccc1ccccc12`, for which the IC50 was 4.09 µM. In the case of `COc1ccc(S(=O)(=O)N2CCN3Cc4ccccc4N(C)CC3C2)cc1` (centres undefined) it was > 50 µM (inactive); in that of `CSc1ccccc1C(=O)Nc1nc(-c2ccncc2)cs1`, 31 µM; in that of `Cc1noc(-c2cccn(Cc3cccc(C(F)(F)F)c3)c2=O)n1`, 8.11 µM. For `O=C1C=C(O)c2c(O)cccc2C1=O`, the IC50 is 15.7 µM. The result for `Cn1c(=O)c2cc(C(=O)Nc3ccc(F)cc3)cnc2n(C)c1=O` reads 20.8 µM; that for `Clc1cc2nc(N3CCN(c4ccccn4)CC3)c3nncn3c2cc1Cl`, 2.3 µM; that for `COc1ccc(CNC(=O)CN2C(=O)CC(c3ccccc3)=Nc3ccccc32)cc1`, 11.9 µM. In the case of `CSc1nc(Cc2ccc(Cl)cc2)nc2ccccc12` it was 14 µM.

For the molecule `CC(C)c1cc(NCc2ccccc2)n2nc(-c3cccnc3)nc2n1`, the IC50 is 16.9 µM. The result for `Cc1nc(Nc2ncc(C)s2)cc(C2CN(C(=O)Cc3ccccc3)CCO2)n1` (centres undefined) reads 43.8 µM. The result for `O=S(=O)(c1ccccc1Cl)N1CCN(c2ccc3nnc(-c4ccco4)n3n2)CC1` reads > 50 µM (inactive); that for `CC1NC(=O)C(CC(N)=O)NC(=O)C(C(C)O)NC(=O)C(Cc2ccc(O)cc2)NC(=O)C(C(C)C)NC(=O)C(NC(=O)CC(O)CCCCCCCCCCCCN=C(N)N)C(C)OC1=O` (centres undefined) ({Pentadecanoyl(3ξ-OH,15-Gua)}-TVYTNA; ester 1-C; configuration not given here), 3.63 µM; that for `O=C(NCc1ccc(Cl)cc1)c1ccc(N2CCCS2(=O)=O)cc1`, > 50 µM (inactive).

As for `CC1CS(=O)(=O)N(c2ccc(C(=O)Nc3ccc4c(c3)OCCO4)cc2)C1=O` (centres undefined), the 50% inhibitory concentration (IC50) was 7.25 µM. The result for `COc1cccc(NC(=O)C2Cc3ccccc3N2C(=O)c2ccccc2)c1` (centres undefined) reads 22.6 µM; that for `COc1ccc(OC)c(NC(=O)C2Oc3ccccc3NC2=O)c1` (centres undefined), 8.5 µM; that for `O=C(Nc1cc(-c2cccnc2)no1)c1ccc(F)c(F)c1`, 10.9 µM. In the case of `COc1ccccc1NC(=O)Cn1cc(C(=O)c2ccc(C)cc2)c(=O)c2cc(Cl)ccc21` it was 11.3 µM; in that of `Cc1ccc(OCC(=O)Nc2cccc(-c3nc4ncccc4o3)c2)c(C)c1`, 38.5 µM; in that of `FC(F)(F)c1cccc(CSc2ccc3nnc(-c4ccccn4)n3n2)c1`, 1.75 µM. The result for `Cc1ccc(C)c(Nc2cc(C)nc3nc(-c4ccco4)nn23)c1` reads > 50 µM (inactive). `O=C(Cn1cc(C(=O)C2CC2)c2ccccc21)NCc1ccc2c(c1)OCO2`: the IC50 was 24.9 µM. In the case of `CCS(=O)(=O)N1CCc2cc(C(=O)Nc3ccc4c(c3)OCCO4)ccc21` it was 0.364 µM; in that of `CC(=O)Nc1ccc(NC(=O)c2cc(-c3cc(C)cc(C)c3O)n[nH]2)cc1`, 10.8 µM.

For the molecule `CCOC(=O)c1ccc(S(=O)(=O)N2CCC(C(=O)OC(C)C(=O)Nc3cccc([N+](=O)[O-])c3)CC2)cc1` (centres undefined), the 50% inhibitory concentration (IC50) was 9.35 µM. The result for `O=C(CSc1nncc2ccccc12)Nc1ccc2c(c1)OCO2` reads 37.5 µM; that for `CC(Sc1n[nH]c2nc3ccccc3n12)C(=O)Nc1ccc2c(c1)OCCO2` (centres undefined), 37.5 µM; that for `O=C1C=CC(O)C2C1CC13SSC4(CC5C(=O)C=CC(O)C5N4C1=O)C(=O)N23` (centres undefined), > 50 µM (inactive). The result for `O=C(Cn1c(=O)n(Cc2ccccc2)c(=O)c2ncccc21)NCc1ccccc1Cl` reads 25.9 µM; that for `CC(C)=CCC/C(C)=C/Cc1c(O)cc2c(c1O)C(=O)OC2`, 2.33 µM. In the case of `CC1=C(c2ccc(C)c(C)c2)S(=O)(=O)NC1=NCC(=O)NCCCc1ccccc1` it was 25.5 µM; in that of `Cc1ccc(-c2c(C(=O)Nc3ccc(S(N)(=O)=O)cc3)oc(=O)c3ccccc23)cc1`, 30.5 µM. In the case of `CC1=C(Cn2c3cccc(=O)c-3nc3ccccc32)CCC(C)(C)C1`, the IC50 is 2.02 µM.

On to `CC(=O)CN1CC2(CCN(Cc3ccc(F)cc3)CC2)COc2ccccc2S1(=O)=O`, for which the IC50 is > 50 µM (inactive). With `N#Cc1ccccc1COC(=O)c1ccc2ccccc2n1`, the IC50 was 6.94 µM.

As to `CC(=O)O[C@H]1[C@]2(O)C[C@]34SS[C@](CO)(C(=O)N3[C@@H]2C[C@@]12O[C@@H](C)C(C)(C)C2=O)N(C)C4=O`, the IC50 is > 50 µM (inactive). With `COc1ccccc1-c1nc(Cn2nnc(C(=O)Nc3cc(C)cc(C)c3)c2N)c(C)o1`, the IC50 was 37.4 µM. As to `Cc1nc2cccnc2n1C1CCN(C(=O)c2cc3cc(Cl)ccc3[nH]2)C1` (centres undefined), the IC50 was 25.3 µM.

On to `c1ccc(Cc2nn3c(-c4cccnc4)nnc3c3ccccc23)cc1`, for which the IC50 was 2.53 µM. The result for `COc1cc(-c2ccno2)ccc1S(=O)(=O)Nc1ccccc1Cl` reads 4.26 µM; that for `COC(=O)c1cc(C#N)c(NCc2ccccc2)nc1C`, 45.2 µM; that for `O=C(Nc1oc2ccccc2c(=O)c1-c1ccc2c(c1)OCO2)C1CCCCC1`, 33.1 µM. The result for `C=C[C@]1(C)C=C2C(=O)[C@]3(O)OC(=O)[C@@]4(CCCC(C)(C)[C@H]34)[C@@]2(O)CC1` reads 27.6 µM; that for `Cc1ccc(Cn2c(=O)n(CCC(=O)NCCc3ccccc3)c(=O)c3ccccc32)cc1`, 13 µM. The result for `O=C(COc1ccc(S(=O)(=O)N2CCOCC2)cc1)N1CCC(Cc2ccccc2)CC1` reads 12.2 µM; that for `O=C(Nc1cccc(Cl)c1)c1ncn2c1CNS(=O)(=O)c1ccccc1-2`, 13.4 µM. Turning to `CCN(CC)c1nc(F)c2c(c1F)S(=O)(=O)CCN2Cc1ccccc1`, the IC50 is > 50 µM (inactive).

Take `CC1=CN2C(=N)/C(=C/c3cn(Cc4ccc(Cl)cc4)c4ccccc34)C(=O)N=C2S1`: the IC50 is > 50 µM (inactive). In the case of `CCOC(=O)c1sc2c(c1C)c(=O)n(Cc1ccccc1)c(=O)n2CC(N)=O` it was 22.2 µM.

Turning to `CC(=O)c1sc(NC(=O)/C=C/c2ccccc2)nc1-c1ccccc1`, the half-inhibitory concentration (IC50) was 18.7 µM.

For `CCOc1ccccc1NC(=O)Cn1ccn2nc(-c3ccc(OC)cc3)cc2c1=O`, the IC50 is 16.5 µM. The result for `O=C(CCCCn1c(=O)[nH]c2ccccc2c1=O)Nc1cccc(Cl)c1` reads 16.7 µM. For `CC1CCN(c2nnc(-c3nc(C4CC4)no3)c3ccccc23)CC1`, the IC50 is > 50 µM (inactive). The result for `CCS(=O)(=O)c1ccccc1C(=O)Nc1ccc2sc(C)nc2c1` reads 17.2 µM. In the case of `CC(=O)Nc1cc(-c2cccc(O)c2)cn2c(-c3cnn(C)c3)cnc12` it was 5.99 µM; in that of `Cc1nn(Cc2ccccc2)c(C)c1C(=O)NC1CCCc2ccccc21` (centres undefined), 5.14 µM; in that of `Cc1cc(=O)n(CC(=O)Nc2ccccc2F)c(Nc2ccc(F)cc2)n1`, 14.3 µM. In the case of `COc1ccc(C(=O)N2CCCC3(C2)Nc2cccnc2NC3=NC2CCCC2)cn1` (centres undefined) it was > 50 µM (inactive). In the case of `COc1cc(O)c2c(=O)c(-c3ccc(O)cc3)coc2c1`, the concentration for half-maximal inhibition (IC50) is 36.1 µM. The result for `CC(=O)c1ccc(NC(=O)c2nc3ccccc3nc2N2CCOCC2)cc1` reads > 50 µM (inactive); that for `COc1ccc(CNC(=O)c2ccccc2N2C(=O)N3CCc4c([nH]c5ccccc45)[C@@]3(C)C2=O)cc1`, 37.4 µM. On to `O=C(CCCCn1c(=O)c2ccccc2n(Cc2ccccc2F)c1=O)NCCc1ccccc1`, for which the IC50 is 15.5 µM. The result for `N#Cc1ccc(NC(=O)Nc2cccn(Cc3ccccc3F)c2=O)cc1` reads 0.235 µM; that for `O=C(CCCC(=O)c1ccccc1)Nc1ccc(F)cc1`, 35 µM.

Turning to `COc1ccc(NC(=O)Cn2cc(C(=O)c3ccc(F)cc3)c(=O)c3cc(C)ccc32)cc1`, the half-inhibitory concentration (IC50) is 19.7 µM. For the molecule `Cc1ccc(NC(=O)Cn2c(-n3nc(C)cc3C)nc3c(c2=O)CCCC3)c(C)c1`, the 50% inhibitory concentration (IC50) is 35.8 µM. As to `COc1cccc(N2CCN(C(=O)CCNS(=O)(=O)c3ccc4c(c3)CCC(=O)N4)CC2)c1`, the IC50 was > 50 µM (inactive). In the case of `CCOC(=O)CSc1nnc(-c2cnn(-c3ccccc3)c2N)o1` it was 19.9 µM. The result for `Cc1ccc2cc3c(nc2n1)CCN(Cc1ccc(F)cc1)C3` reads > 50 µM (inactive); that for `c1coc(CNc2nc3ccccc3n3nnnc23)c1`, > 50 µM (inactive); that for `Cc1ccc2c(c1)c(=O)c(C(=O)c1ccc(F)cc1)cn2CC(=O)Nc1ccc2c(c1)OCCO2`, 35.9 µM. In the case of `CC(=O)c1cccc(NC(=O)c2ccc(CN(c3ccc(C)c(C)c3)S(C)(=O)=O)cc2)c1` it was 2.2 µM; in that of `CCOc1ccc(NC(=O)c2cc(-c3ccccc3)c(N3CCOCC3)s2)cc1`, 14 µM; in that of `CCC(CC)n1[nH]c(=O)c2c1NC(=O)CSC2c1ccc2c(c1)OCO2` (centres undefined), 18.6 µM.

One may read the IC50 as the concentration needed to halve the response being measured.
